Assay type in all cases: cell-based
The target of test [1] is Toll-like receptor 2 (Mus musculus) (UniProt Q9QUN7). Put plainly: Agonist activity at TLR2 in CSF-2/GM-CSF treated wild type C57BL/6 mouse BMDC cells assessed as increase in TNF-alpha level at 10 uM measured after 24 hrs by ELISA.
Test [2] has the same target. Nature of the test: Agonist activity at TLR2 in CSF-2/GM-CSF treated wild type C57BL/6 mouse BMDC cells assessed as increase in TNF-alpha mRNA expression at 10 uM measured after 24 hrs by qRT-PCR analysis. In general terms: Real-time PCR tracks product formation cycle by cycle.
Test [3] concerns the target T1, Toll-like receptor 2 (Homo sapiens, UniProt O60603). Nature of the test: Agonist activity at TLR2 in PMA-differentiated human THP-1 cells assessed as increase in IL-1beta mRNA expression by qRT-PCR analysis.
Test [4] has as its target T1, Toll-like receptor 2. Put plainly: Agonist activity at TLR2 in PMA-differentiated human THP-1 cells assessed as increase in TNF-alpha mRNA expression by qRT-PCR analysis.
Test [5] has as its target T1, Toll-like receptor 2. Put plainly: Agonist activity at TLR2 in PMA-differentiated human THP-1 cells assessed as increase in IL-6 mRNA expression by qRT-PCR analysis.
Test [6] concerns the target T1, Toll-like receptor 2. Put plainly: Agonist activity at TLR2 in PMA-differentiated human THP-1 cells assessed as increase in TNF-alpha level by ELISA. In general terms: ELISA stands for enzyme-linked immunosorbent assay.
The target of test [7] is T1, Toll-like receptor 2. Put plainly: Agonist activity at human TLR2 transfected in HEK293T cells cotransfected with NF-kappaB promoter assessed as increase in NF-kappaB activation measured after 24 hrs by Dual-Glo luciferase assay. To be noted: filed as agonist.
The target in a further test is TLR2/TLR6 (Homo sapiens) (UniProt O60603+Q9Y2C9). Put plainly: Agonist activity at human TLR2/TLR6 heterodimer transfected in HEK293T cells cotransfected with NF-kappaB promoter assessed as increase in NF-kappaB activation at 1 to 50 uM measured after 24 hrs by Dual-Glo luciferase assay. To be noted: dose 1-50 µM.
In test [8] the target is Toll-like receptor 1/2 (Homo sapiens) (UniProt O60603+Q15399). Nature of the test: Agonist activity at human TLR1/TLR2 heterodimer transfected in HEK293T cells cotransfected with NF-kappaB promoter assessed as fold increase in NF-kappaB activation at 1 to 50 uM measured after 24 hrs by Dual-Glo luciferase assay relative to TLR2 alone. Conditions: filed as agonist, dose 1-50 µM.

Test [9] addresses Toll-like receptor 2 (Mus musculus, UniProt Q9QUN7). Nature of the test: Agonist activity at TLR2 in RmGM-CSF-induced wild type Black6 mouse BMDC cells lacking TLR4 assessed as increase in TNFalpha response incubated overnight by ELISA.

Calls of active or inactive are those of the source. The calls are words filed in the database; no cut-off is given here.

In ChEMBL document CHEMBL5550187, “The Development of a Highly Potent and Selective Human Toll-like Receptor 2 Agonist: Synthesis and Biological Evaluation of CaLGL-1 and Its Derivatives” (J Med Chem, 2024) one finds Activity, EC50 and fold change (FC) data, which are given here for ten compounds.

Chain of Toll-like receptor 2 (Mus musculus) (Q9QUN7 whole entry): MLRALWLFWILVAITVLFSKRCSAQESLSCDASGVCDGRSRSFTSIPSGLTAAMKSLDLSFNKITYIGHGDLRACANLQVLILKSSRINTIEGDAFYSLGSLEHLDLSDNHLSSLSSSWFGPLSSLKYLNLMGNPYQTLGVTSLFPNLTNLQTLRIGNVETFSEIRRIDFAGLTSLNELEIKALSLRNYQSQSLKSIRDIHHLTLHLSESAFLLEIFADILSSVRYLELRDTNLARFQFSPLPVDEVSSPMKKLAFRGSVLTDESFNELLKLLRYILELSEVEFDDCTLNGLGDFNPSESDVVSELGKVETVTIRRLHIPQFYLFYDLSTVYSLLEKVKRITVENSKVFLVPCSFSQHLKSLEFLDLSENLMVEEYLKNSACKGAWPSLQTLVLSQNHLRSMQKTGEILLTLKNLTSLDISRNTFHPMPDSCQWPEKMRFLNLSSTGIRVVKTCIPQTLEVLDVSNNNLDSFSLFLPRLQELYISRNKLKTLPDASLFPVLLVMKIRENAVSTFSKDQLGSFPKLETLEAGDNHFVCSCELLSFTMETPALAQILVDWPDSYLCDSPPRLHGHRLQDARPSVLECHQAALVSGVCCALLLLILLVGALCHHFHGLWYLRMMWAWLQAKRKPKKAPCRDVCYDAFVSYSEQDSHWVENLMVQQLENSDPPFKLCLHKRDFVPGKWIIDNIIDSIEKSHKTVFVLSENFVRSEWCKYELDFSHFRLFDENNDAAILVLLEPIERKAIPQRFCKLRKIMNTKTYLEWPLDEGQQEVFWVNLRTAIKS
T1 sequence (O60603 whole entry): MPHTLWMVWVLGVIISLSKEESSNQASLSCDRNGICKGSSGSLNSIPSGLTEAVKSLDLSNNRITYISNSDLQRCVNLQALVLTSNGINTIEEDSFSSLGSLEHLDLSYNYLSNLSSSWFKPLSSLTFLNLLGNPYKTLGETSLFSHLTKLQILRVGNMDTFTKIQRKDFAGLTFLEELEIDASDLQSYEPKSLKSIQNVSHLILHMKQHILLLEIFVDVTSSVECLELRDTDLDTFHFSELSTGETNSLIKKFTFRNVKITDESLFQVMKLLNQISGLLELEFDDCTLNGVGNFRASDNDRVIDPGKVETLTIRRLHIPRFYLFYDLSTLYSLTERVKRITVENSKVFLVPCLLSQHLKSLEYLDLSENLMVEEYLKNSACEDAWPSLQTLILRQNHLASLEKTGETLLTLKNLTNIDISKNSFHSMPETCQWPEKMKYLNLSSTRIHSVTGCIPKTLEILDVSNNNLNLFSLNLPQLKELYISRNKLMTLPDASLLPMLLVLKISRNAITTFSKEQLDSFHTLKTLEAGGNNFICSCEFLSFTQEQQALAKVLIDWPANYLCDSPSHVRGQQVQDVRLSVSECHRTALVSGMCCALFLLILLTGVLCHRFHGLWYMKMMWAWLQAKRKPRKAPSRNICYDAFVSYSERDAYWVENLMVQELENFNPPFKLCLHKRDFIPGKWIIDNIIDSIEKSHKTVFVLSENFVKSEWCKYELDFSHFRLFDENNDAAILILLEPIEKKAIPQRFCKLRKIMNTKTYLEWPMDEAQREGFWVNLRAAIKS
Chain of Toll-like receptor 2 (Mus musculus, UniProt Q9QUN7) (Q9QUN7 whole entry): as the sequence (Q9QUN7 whole entry) above

For the compound `CCCCCCCCCCCCCCCCC[C@@H]1OC[C@H]([C@@H]2O[C@@H](OC[C@H](O)COC(=O)CCCCCCCCCCC)[C@H](O)[C@H]2O)O1`, the outcome in test [1] and in test [2] was inactive.
For the compound `CCCCCCCCCCCC(=O)OC[C@@H](O)CO[C@@H]1O[C@@H]([C@H]2CO[C@@H](CCCCCCCCCCC)O2)[C@H](O)[C@H]1O`, the result (at Toll-like receptor 2 [3] (filed as agonist); on Toll-like receptor 2 [4] (filed as agonist); in test [1] (filed as agonist); in [2] (filed as agonist); at Toll-like receptor 2 [5] (filed as agonist)) was Active.
Regarding `CCCCCCCCCCCCCCCCCCC[C@H]1OC[C@H]([C@@H]2O[C@@H](OC[C@H](O)COC(=O)CCCCCCCCCCC)[C@H](O)[C@H]2O)O1`, the outcome in test [1] and in test [2] was inactive.
In the case of `CCCCCCCCCCCC(=O)OC[C@@H](O)CO[C@@H]1O[C@@H]([C@H]2CO[C@@H](CCCCCCCCC)O2)[C@H](O)[C@H]1O`, the outcome in [1] (filed as agonist) and in test [2] (filed as agonist) was Active.
As a reminder, the EC50 is the concentration at which the effect is half-maximal. As to `CCCCCCCCCCCC[C@@H]1OC[C@H]([C@@H]2O[C@@H](OC[C@H](O)COC(=O)CCCCCCCCCCC)[C@H](O)[C@H]2O)O1`, at Toll-like receptor 2 [6], the EC50 worked out at 0.116 nM. For the same compound, the result at Toll-like receptor 2 [7] was Active. Also, the outcome at TLR2/TLR6 (Homo sapiens) was inactive. The fold change (FC) in test [8] worked out at 15.
Consider `CCCCCCCCCCCCCCCCCCC[C@@H]1OC[C@H]([C@@H]2O[C@@H](OC[C@H](O)COC(=O)CCCCCCCCCCC)[C@H](O)[C@H]2O)O1`, for which the result in test [1] and in test [2] was inactive.
With `CCCCCCCCCCCC(=O)OC[C@@H](O)CO[C@@H]1O[C@@H]([C@H]2CO[C@H](CCCCCCCCCCC)O2)[C@H](O)[C@H]1O`, the outcome in [1] (filed as agonist) and in [2] (filed as agonist) was Active.
Regarding `CCCCCCCCCCCCCCCCC[C@H]1OC[C@H]([C@@H]2O[C@@H](OC[C@H](O)COC(=O)CCCCCCCCCCC)[C@H](O)[C@H]2O)O1`, the outcome in [1] and in test [2] was inactive.
In the case of `CCCCCCCCCCCCC[C@@H]1OC[C@H]([C@@H]2O[C@@H](OC[C@H](O)COC(=O)CCCCCCCCCCC)[C@H](O)[C@H]2O)O1`, the result on Toll-like receptor 2 [3], on Toll-like receptor 2 [4] and on Toll-like receptor 2 [5] was inactive. Also, at Toll-like receptor 2 [9], the EC50 was determined as 3200 nM.
Regarding `CCCCCCCCCCCC(=O)OC[C@@H](O)CO[C@@H]1O[C@@H]([C@H]2CO[C@H](CCCCCCCCC)O2)[C@H](O)[C@H]1O`, the result in test [1] (filed as agonist) and in [2] (filed as agonist) was Active.
